Results reported in US20250296971A1, “GASTRIC INHIBITORY PEPTIDE RECEPTOR LIGANDS” (priority 2021, published 2025).
*1 amine or outer side, *2 acyl side, *3 side chain or, on linkers, in order; H or OH if unused. Where a SMILES comes first, the peptide text is derived from it. Bridges are numbered along the chain shown (N, C = ends). [ ]: non-standard residue; d: D form. Trp(5-Cl) = N[C@@H](Cc1c[nH]c2ccc(Cl)cc12)C(=O)O; Pyridine(2,6-diCH2) = c1cc(C[*:1])nc(C[*:2])c1; Trp(7-F) = N[C@@H](Cc1c[nH]c2c(F)cccc12)C(=O)O; Pro(4R-NH2) = N[C@H]1CN[C@H](C(=O)O)C1; mXylylene = c1cc(C[*:1])cc(C[*:2])c1; Hyp = O=C(O)[C@@H]1C[C@@H](O)CN1; Tle = CC(C)(C)[C@H](N)C(=O)O; Thp = NC1(C(=O)O)CCOCC1

Target: T1, GIPR (CHO-K1-hGIPR cells) (Homo sapiens, UniProt P48546)
T1 construct: host or cells: CHO-K1
T1 sequence (P48546 22-466): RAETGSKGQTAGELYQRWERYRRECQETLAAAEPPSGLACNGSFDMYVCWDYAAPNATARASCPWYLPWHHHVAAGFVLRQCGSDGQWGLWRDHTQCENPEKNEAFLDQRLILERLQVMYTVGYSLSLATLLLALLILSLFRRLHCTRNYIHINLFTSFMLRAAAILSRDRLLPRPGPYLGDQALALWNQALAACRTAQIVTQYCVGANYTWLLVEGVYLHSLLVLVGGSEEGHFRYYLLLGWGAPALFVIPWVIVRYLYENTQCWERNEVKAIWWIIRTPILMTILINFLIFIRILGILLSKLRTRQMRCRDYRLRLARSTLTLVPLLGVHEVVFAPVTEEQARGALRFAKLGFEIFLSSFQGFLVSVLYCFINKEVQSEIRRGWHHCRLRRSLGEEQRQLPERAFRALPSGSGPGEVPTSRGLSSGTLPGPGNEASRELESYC
Assay: FACS binding assay
Settings: competition with 20 nM GIP-057, 4° C., 1 hour, read-out: pIC50 Category (converted)
In short: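 Steps: detach CHO-K1-hGIPR cells (Accutase); wash in PBS/1% FCS; adjust to 500.000 cells per mL; wash ice-cold; incubate APC-streptavidin 1 μg/mL, 30 min on ice; wash twice; acquire on flow cytometer; fit MFI-concentration data with a four-parameter logistic model.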

IC50 [µM]	Compound
< 0.01	CC[C@H](C)[C@@H]1NC(=O)[C@H](CC(C)C)NC(=O)C2(CCOCC2)NC(=O)[C@@H](NC(=O)[C@@H](CC(C)C)NC(=O)[C@H](CCC(=O)O)NC(=O)[C@@H]2C[C@@H](O)CN2C(=O)[C@H](Cc2c[nH]c3c(F)cccc23)NC(=O)[C@H](Cc2c[nH]c3ccccc23)NC(=O)[C@H](CC(=O)O)NC(C)=O)CSCc2cccc(n2)CSC[C@@H](C(N)=O)NC1=O [GIP-227, Ac-Asp-Trp-7Fw-Hyp-Glu-leu-[Cys(2Lut)-Thp-Leu-Ile-Cys]-NH2] (Ac-DW[Trp(7-F)][Hyp]E[dL]C[Thp]LIC-NH2; linker 7-11 via Pyridine(2,6-diCH2))
< 0.01	CC[C@H](C)[C@@H]1NC(=O)[C@H](CC(C)C)NC(=O)[C@H](Cc2ccccc2)NC(=O)[C@@H](NC(=O)[C@@H](CC(C)C)NC(=O)[C@H](CCC(=O)O)NC(=O)[C@@H]2C[C@@H](O)CN2C(=O)[C@H](Cc2c[nH]c3ccc(Cl)cc23)NC(=O)[C@H](Cc2c[nH]c3ccccc23)NC(=O)[C@H](CC(=O)O)NC(C)=O)CSCc2cccc(n2)CSC[C@@H](C(N)=O)NC1=O [GIP-228, Ac-Asp-Trp-5Clw-Hyp-Glu-leu-[Cys(2Lut)-Phe-Leu-Ile-Cys]-NH2] (Ac-DW[Trp(5-Cl)][Hyp]E[dL]CFLIC-NH2; linker 7-11 via Pyridine(2,6-diCH2))
< 0.01	CC[C@H](C)[C@@H]1NC(=O)[C@H]([C@@H](C)CC)NC(=O)C2(CCOCC2)NC(=O)[C@@H](NC(=O)[C@@H](CC(C)C)NC(=O)[C@H](CCC(=O)O)NC(=O)[C@@H]2C[C@@H](O)CN2C(=O)[C@H](Cc2c[nH]c3ccc(Cl)cc23)NC(=O)[C@H](Cc2c[nH]c3ccccc23)NC(=O)[C@H](CC(=O)O)NC(C)=O)CSCc2cccc(n2)CSC[C@@H](C(N)=O)NC1=O [GIP-229, Ac-Asp-Trp-5Clw-Hyp-Glu-leu-[Cys(2Lut)-Thp-Ile-Ile-Cys]-NH2] (Ac-DW[Trp(5-Cl)][Hyp]E[dL]C[Thp]IIC-NH2; linker 7-11 via Pyridine(2,6-diCH2))
< 0.01	CC[C@H](C)[C@@H]1NC(=O)[C@H](CCCNC(=N)N)NC(=O)C2(CCOCC2)NC(=O)[C@@H](NC(=O)[C@@H](CC(C)C)NC(=O)[C@H](CCC(=O)O)NC(=O)[C@@H]2C[C@@H](O)CN2C(=O)[C@H](Cc2c[nH]c3ccc(Cl)cc23)NC(=O)[C@H](Cc2c[nH]c3ccccc23)NC(=O)[C@H](CC(=O)O)NC(C)=O)CSCc2cccc(n2)CSC[C@@H](C(N)=O)NC1=O [GIP-230, Ac-Asp-Trp-5Clw-Hyp-Glu-leu-[Cys(2Lut)-Thp-Arg-Ile-Cys]-NH2] (Ac-DW[Trp(5-Cl)][Hyp]E[dL]C[Thp]RIC-NH2; linker 7-11 via Pyridine(2,6-diCH2))
< 0.01	CC[C@H](C)[C@@H]1NC(=O)[C@H](CCC(=O)O)NC(=O)C2(CCOCC2)NC(=O)[C@@H](NC(=O)[C@@H](CC(C)C)NC(=O)[C@H](CCC(=O)O)NC(=O)[C@@H]2C[C@@H](O)CN2C(=O)[C@H](Cc2c[nH]c3ccc(Cl)cc23)NC(=O)[C@H](Cc2c[nH]c3ccccc23)NC(=O)[C@H](CC(=O)O)NC(C)=O)CSCc2cccc(n2)CSC[C@@H](C(N)=O)NC1=O [GIP-231, Ac-Asp-Trp-5Clw-Hyp-Glu-leu-[Cys(2Lut)-Thp-Glu-Ile-Cys]-NH2] (Ac-DW[Trp(5-Cl)][Hyp]E[dL]C[Thp]EIC-NH2; linker 7-11 via Pyridine(2,6-diCH2))
< 0.01	CC[C@H](C)[C@@H]1NC(=O)[C@H](Cc2ccccc2)NC(=O)C2(CCOCC2)NC(=O)[C@@H](NC(=O)[C@@H](CC(C)C)NC(=O)[C@H](CCC(=O)O)NC(=O)[C@@H]2C[C@@H](O)CN2C(=O)[C@H](Cc2c[nH]c3ccc(Cl)cc23)NC(=O)[C@H](Cc2c[nH]c3ccccc23)NC(=O)[C@H](CC(=O)O)NC(C)=O)CSCc2cccc(n2)CSC[C@@H](C(N)=O)NC1=O [GIP-232, Ac-Asp-Trp-5Clw-Hyp-Glu-leu-[Cys(2Lut)-Thp-Phe-Ile-Cys]-NH2] (Ac-DW[Trp(5-Cl)][Hyp]E[dL]C[Thp]FIC-NH2; linker 7-11 via Pyridine(2,6-diCH2))
< 0.01	CC[C@H](C)[C@@H]1NC(=O)[C@H](Cc2c[nH]c3ccccc23)NC(=O)C2(CCOCC2)NC(=O)[C@@H](NC(=O)[C@@H](CC(C)C)NC(=O)[C@H](CCC(=O)O)NC(=O)[C@@H]2C[C@@H](O)CN2C(=O)[C@H](Cc2c[nH]c3ccc(Cl)cc23)NC(=O)[C@H](Cc2c[nH]c3ccccc23)NC(=O)[C@H](CC(=O)O)NC(C)=O)CSCc2cccc(n2)CSC[C@@H](C(N)=O)NC1=O [GIP-233, Ac-Asp-Trp-5Clw-Hyp-Glu-leu-[Cys(2Lut)-Thp-Trp-Ile-Cys]-NH2] (Ac-DW[Trp(5-Cl)][Hyp]E[dL]C[Thp]WIC-NH2; linker 7-11 via Pyridine(2,6-diCH2))
< 0.01	CC[C@H](C)[C@@H]1NC(=O)[C@H](CC(C)C)NC(=O)[C@H](Cc2c[nH]c3ccccc23)NC(=O)[C@@H](NC(=O)[C@@H](CC(C)C)NC(=O)[C@H](CCC(=O)O)NC(=O)[C@@H]2C[C@@H](O)CN2C(=O)[C@H](Cc2c[nH]c3ccc(Cl)cc23)NC(=O)[C@H](Cc2c[nH]c3ccccc23)NC(=O)[C@H](CC(=O)O)NC(C)=O)CSCc2cccc(n2)CSC[C@@H](C(N)=O)NC1=O [GIP-234, Ac-Asp-Trp-5Clw-Hyp-Glu-leu-[Cys(2Lut)-Trp-Leu-Ile-Cys]-NH2] (Ac-DW[Trp(5-Cl)][Hyp]E[dL]CWLIC-NH2; linker 7-11 via Pyridine(2,6-diCH2))
< 0.01	CC[C@H](C)[C@@H]1NC(=O)[C@H](CC(C)C)NC(=O)[C@H](CCC(=O)O)NC(=O)[C@@H](NC(=O)[C@@H](CC(C)C)NC(=O)[C@H](CCC(=O)O)NC(=O)[C@@H]2C[C@@H](O)CN2C(=O)[C@H](Cc2c[nH]c3ccc(Cl)cc23)NC(=O)[C@H](Cc2c[nH]c3ccccc23)NC(=O)[C@H](CC(=O)O)NC(C)=O)CSCc2cccc(n2)CSC[C@@H](C(N)=O)NC1=O [GIP-235, Ac-Asp-Trp-5Clw-Hyp-Glu-leu-[Cys(2Lut)-Glu-Leu-Ile-Cys]-NH2] (Ac-DW[Trp(5-Cl)][Hyp]E[dL]CELIC-NH2; linker 7-11 via Pyridine(2,6-diCH2))
< 0.01	CC[C@H](C)[C@@H]1NC(=O)[C@H](CO)NC(=O)C2(CCOCC2)NC(=O)[C@@H](NC(=O)[C@@H](CC(C)C)NC(=O)[C@H](CCC(=O)O)NC(=O)[C@@H]2C[C@@H](O)CN2C(=O)[C@H](Cc2c[nH]c3ccc(Cl)cc23)NC(=O)[C@H](Cc2c[nH]c3ccccc23)NC(=O)[C@H](CC(=O)O)NC(C)=O)CSCc2cccc(n2)CSC[C@@H](C(N)=O)NC1=O [GIP-236, Ac-Asp-Trp-5Clw-Hyp-Glu-leu-[Cys(2Lut)-Thp-Ser-Ile-Cys]-NH2] (Ac-DW[Trp(5-Cl)][Hyp]E[dL]C[Thp]SIC-NH2; linker 7-11 via Pyridine(2,6-diCH2))
< 0.01	CC(=O)N[C@@H](CC(=O)O)C(=O)N[C@@H](Cc1c[nH]c2ccccc12)C(=O)N[C@@H](Cc1c[nH]c2ccc(Cl)cc12)C(=O)N1C[C@H](O)C[C@H]1C(=O)N[C@@H](CCC(=O)O)C(=O)N[C@H](CC(C)C)C(=O)N[C@H]1CSCc2cccc(n2)CSC[C@@H](C(N)=O)NC(=O)[C@H](CC(C)C)NC(=O)[C@H](CC(C)C)NC(=O)C2(CCOCC2)NC1=O [GIP-237, Ac-Asp-Trp-5Clw-Hyp-Glu-leu-[Cys(2Lut)-Thp-Leu-Leu-Cys]-NH2] (Ac-DW[Trp(5-Cl)][Hyp]E[dL]C[Thp]LLC-NH2; linker 7-11 via Pyridine(2,6-diCH2))
< 0.01	CC(=O)N[C@@H](CC(=O)O)C(=O)N[C@@H](Cc1c[nH]c2ccccc12)C(=O)N[C@@H](Cc1c[nH]c2ccc(Cl)cc12)C(=O)N1C[C@H](O)C[C@H]1C(=O)N[C@@H](CCC(=O)O)C(=O)N[C@H](CC(C)C)C(=O)N[C@H]1CSCc2cccc(n2)CSC[C@@H](C(N)=O)NC(=O)[C@H](C(C)(C)C)NC(=O)[C@H](CC(C)C)NC(=O)C2(CCOCC2)NC1=O [GIP-238, Ac-Asp-Trp-5Clw-Hyp-Glu-leu-[Cys(2Lut)-Thp-Leu-Tle-Cys]-NH2] (Ac-DW[Trp(5-Cl)][Hyp]E[dL]C[Thp]L[Tle]C-NH2; linker 7-11 via Pyridine(2,6-diCH2))
< 0.01	CC[C@H](C)[C@@H]1NC(=O)[C@H](CC(C)C)NC(=O)C2(CCOCC2)NC(=O)[C@@H](NC(=O)[C@@H](CC(C)C)NC(=O)[C@H](CCC(=O)O)NC(=O)[C@@H]2C[C@@H](N)CN2C(=O)[C@H](Cc2c[nH]c3ccc(Cl)cc23)NC(=O)[C@H](Cc2c[nH]c3ccccc23)NC(=O)[C@H](CC(=O)O)NC(C)=O)CSCc2cccc(n2)CSC[C@@H](C(N)=O)NC1=O [GIP-239, Ac-Asp-Trp-5Clw-Tap-Glu-leu-[Cys(2Lut)-Thp-Leu-Ile-Cys]-NH2] (Ac-DW[Trp(5-Cl)][Pro(4R-NH2)]E[dL]C[Thp]LIC-NH2; linker 7-11 via Pyridine(2,6-diCH2))
0.01 to 0.0794	CC[C@H](C)[C@@H]1NC(=O)[C@H](CC(C)C)NC(=O)[C@H](CCCCN)NC(=O)[C@@H](NC(=O)[C@H](CC(C)C)NC(=O)[C@H](CCC(=O)O)NC(=O)[C@@H]2CCCN2C(=O)[C@H](Cc2c[nH]c3ccccc23)NC(=O)[C@H](Cc2c[nH]c3ccccc23)NC(=O)[C@H](CC(=O)O)NC(=O)[C@H](Cc2ccc(O)cc2)NC(=O)[C@@H](N)CCSC)CSCc2cccc(c2)CSC[C@@H](C(N)=O)NC1=O [GIP-243] (H-MYDWWPELCKLIC-NH2; linker 9-13 via mXylylene)
